Earlier results as cited in article PMC5936891, “A focused library synthesis and cytotoxicity of quinones derived from the natural product bolinaquinone” (Royal Society Open Science, 2018).

Key:
NCI-H929 myeloma = tested on: NCI-H929 myeloma; design: method as in ref 23 = [23]; 23 Jiao W-H , Xu T-T , Yu H-B , Mu F-R , Li J , Li Y-S , Yang F , Han B-N , Lin H-W 2014 Dysidaminones A-M, cytotoxic and NF-B inhibitory sesquiterpene aminoquinones from the South China Sea sponge, D; settings: cited from earlier work
HeLa = tested on: HeLa; design: method as in PMID 19995673, PMID 3839712; settings: cited from earlier work
[1] = tested on: L5178Y mouse lymphoma cells; design: method as in PMID 19995673, PMID 3839712; settings: cited from earlier work
A-549 lung = tested on: A-549 lung; design: method as in ref 21 = [21]; 21 Rodríguez J , Quiñoá E , Riguera R , Peters BM , Abrell LM , Crews P 1992 The structures and stereochemistry of cytotoxic sesquiterpene quinones from Dactylospongia elegans . Tetrahedron 48 , 6667; settings: cited from earlier work
HT-29 colorectal = tested on: HT-29 colorectal; design: method as in ref 21 = [21]; 21 Rodríguez J , Quiñoá E , Riguera R , Peters BM , Abrell LM , Crews P 1992 The structures and stereochemistry of cytotoxic sesquiterpene quinones from Dactylospongia elegans . Tetrahedron 48 , 6667; settings: cited from earlier work
P-388 leukaemia cells = tested on: P-388 leukaemia cells; design: method as in ref 21 = [21]; 21 Rodríguez J , Quiñoá E , Riguera R , Peters BM , Abrell LM , Crews P 1992 The structures and stereochemistry of cytotoxic sesquiterpene quinones from Dactylospongia elegans . Tetrahedron 48 , 6667; settings: cited from earlier work
melanoma B16/F10 = tested on: melanoma B16/F10; design: method as in ref 21 = [21]; 21 Rodríguez J , Quiñoá E , Riguera R , Peters BM , Abrell LM , Crews P 1992 The structures and stereochemistry of cytotoxic sesquiterpene quinones from Dactylospongia elegans . Tetrahedron 48 , 6667; settings: cited from earlier work
epidermoid KB cell line = tested on: epidermoid KB cell line; design: method as in ref 22 = [22]; 22 Shigemori H , Madono T , Sasaki T , Mikami Y , Kobayashi JI 1994 Nakijiquinones A and B, new antifungal sesquiterpenoid quinones with an amino acid residue from an Okinawan marine sponge . Tetrahed; settings: cited from earlier work
leukaemia L-1210 = tested on: leukaemia L-1210; design: method as in ref 22 = [22]; 22 Shigemori H , Madono T , Sasaki T , Mikami Y , Kobayashi JI 1994 Nakijiquinones A and B, new antifungal sesquiterpenoid quinones with an amino acid residue from an Okinawan marine sponge . Tetrahed; settings: read-out: GI50 leukaemia L-1210; cited from earlier work
[2] = tested on: HepG2 hepatoma cancer cell line; design: method as in ref 23 = [23]; 23 Jiao W-H , Xu T-T , Yu H-B , Mu F-R , Li J , Li Y-S , Yang F , Han B-N , Lin H-W 2014 Dysidaminones A-M, cytotoxic and NF-B inhibitory sesquiterpene aminoquinones from the South China Sea sponge, D; settings: cited from earlier work

In the case of `CC1=CCC[C@H]2[C@](C)(CC3=CC(=O)C=C(NCCc4ccccc4)C3=O)[C@@H](C)CC[C@]12C` [compound 7, 18-phenethylaminoavarone], the GI50 (NCI-H929 myeloma) is listed as 1760 nM.
In the case of `CC1=CCC[C@H]2[C@](C)(CC3=CC(=O)C=CC3=O)[C@@H](C)CC[C@]12C` [compound 2, avarone], the GI50 (HeLa) is listed as 26.8 ± 3 µM and the “ED50 L5178Y mouse lymphoma cells” value [1] is listed as 0.62 ± 0.11 µM.
For `C=C1CCC[C@H]2[C@](C)(CC3=C(O)C(=O)C=C(OC)C3=O)[C@@H](C)CC[C@]12C` [compound 4, epi-ilimaquinone], the GI50 (A-549 lung) is given as 2510 nM, the GI50 (HT-29 colorectal) is given as 9.48 µM and the GI50 (P-388 leukaemia cells) is given as 6.14 µM. For the same molecule, the GI50 (melanoma B16/F10) was 3.1 µM.
For `CC1=CCC[C@H]2[C@](C)(CC3=C(O)C(=O)C=C(NCC(=O)O)C3=O)[C@@H](C)CC[C@]12C` [compound 5, nakijiquinone A], the “GI50 epidermoid KB” value (epidermoid KB cell line) is listed as 18.92 µM and the GI50 (leukaemia L-1210) is listed as 9.46 µM.
In the case of `CC1=CCC[C@H]2[C@](C)(CC3=CC(=O)C=C(NCC(C)C)C3=O)[C@@H](C)CC[C@]12C` [compound 6, dysidaminone E-5], the GI50 [2] is given as 940 nM.
